Measurements taken from patent US12503475B2 (Centessa Pharmaceuticals (UK) Limited, priority 2020, dated 2025).
Where two headings read alike, the source gives them in different places.

Target: T1, human orexin type 2 receptor (hOX2R) (Homo sapiens, UniProt O43614)
T1 construct: expressed in transfected cells
T1 sequence (O43614 1-444): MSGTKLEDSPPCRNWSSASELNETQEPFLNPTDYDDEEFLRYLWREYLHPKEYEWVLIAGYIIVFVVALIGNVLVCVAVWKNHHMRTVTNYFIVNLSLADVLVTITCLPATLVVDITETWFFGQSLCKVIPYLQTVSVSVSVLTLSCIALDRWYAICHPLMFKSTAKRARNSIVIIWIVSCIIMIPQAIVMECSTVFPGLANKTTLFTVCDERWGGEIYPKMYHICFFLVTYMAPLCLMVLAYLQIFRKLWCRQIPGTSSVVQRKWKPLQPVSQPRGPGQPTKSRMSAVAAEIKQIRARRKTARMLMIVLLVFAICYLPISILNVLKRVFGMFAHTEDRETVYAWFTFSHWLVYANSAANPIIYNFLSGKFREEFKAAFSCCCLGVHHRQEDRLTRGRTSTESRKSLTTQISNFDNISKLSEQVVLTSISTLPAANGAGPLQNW
Experiment: Measurement of orexin type 2 receptor agonist activity (FLIPR calcium fluorescence)
Assay type: cell-based
Conditions: for EC50: read-out: hOx2 pEC50 (converted); for Emax: CHO, read-out: hOx2 Emax (%)
Procedure, shortened: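 Agonism was read as fluorescence in cells stably expressing human OX2R. E. is the response at 10 μM relative to orexin A as full agonist (100%).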

[1] = CHO cells expressing hOX2R, FLIPR calcium fluorescence

Structure (SMILES) | EC50 [1] [nM] | Emax [1] [%] | hOx2 Emax (%) [1] | hOx2 pEC50 [1] | Emax [%]
O=C([C@H]1CCO1)N1CC2(CC2)[C@H](NS(=O)(=O)CF)[C@@H]1Cc1cc(F)cc(-c2cccc(F)c2)c1F [Compound 123, 1-fluoro-N-((6S,7S)-5-((R)-oxetane-2-carbonyl)-6-((2,3′,5-trifluoro-[1,1′-biphenyl]-3-yl)methyl)-5-azaspiro[2.4]heptan-7-yl)methanesulfonamide] | 0.0794 to 1 | 90 to 100 |  |  | 
CCNC(=O)N1CC2(CC2)[C@H](NS(=O)(=O)CC)[C@@H]1Cc1cccc(-c2ccccc2)c1F [Compound 89] |  |  | A (Emax ranging between 90 and 100) | ***** (pEC50 ranging between 9.0 and 10.1) | 
O=C([C@H]1C[C@@H](F)C1)N1CC2(CC2)[C@H](NS(=O)(=O)CF)[C@@H]1Cc1cccc(-c2ccccc2)c1F [Compound 189] | 1 to 10 | 90 to 100 |  |  | 
O=C([C@H]1C[C@H](F)C1)N1CC2(CC2)[C@H](NS(=O)(=O)C(F)F)[C@@H]1Cc1cccc(-c2ccccc2)c1F [Compound 182, 1,1-difluoro-N-((6S,7S)-6-((2-fluoro-[1,1′-biphenyl]-3-yl)methyl)-5-((1r,3r)-3-fluorocyclobutane-1-carbonyl)-5-azaspiro[2.4]heptan-7-yl)methanesulfonamide] | 1 to 10 | 90 to 100 |  |  | 
O=C([C@H]1CCO1)N1CC2(CC2)[C@H](NS(=O)(=O)C(F)F)[C@@H]1Cc1cccc(-c2ccccc2F)c1F [Compound 163, N-((6S,7S)-6-((2,2′-difluoro-[1,1′-biphenyl]-3-yl)methyl)-5-((R)-oxetane-2-carbonyl)-5-azaspiro[2.4]heptan-7-yl)-1,1-difluoromethanesulfonamide] | 1 to 10 | 90 to 100 |  |  | 
O=C([C@H]1CCO1)N1CC2(CC2)[C@H](NS(=O)(=O)C2CC2)[C@@H]1Cc1cccc(-c2ccccc2)c1F [Compound 69, N-((6S 7S)-6-((2-fluoro-[1,1′-biphenyl]-3-yl)methyl)-5-((R)-oxetane-2-carbonyl)-5-azaspiro[2.4]heptan-7-yl)cyclopropanesulfonamide] | 0.0794 to 1 | 90 to 100 |  |  | 
CS(=O)(=O)N[C@@H]1[C@H](Cc2cccc(-c3ccccc3)c2F)N(C(=O)N2CC(F)(F)C2)CC12CC2 [Compound 87, N-((6S,7S)-5-(3,3-difluoroazetidine-1-carbonyl)-6-((2-fluoro-[1,1′-biphenyl]-3-yl)methyl)-5-azaspiro[2.4]heptan-7-yl)methanesulfonamide] | 10 to 100 | 90 to 100 |  |  | 
C[C@@H](F)CNC(=O)N1CC2(CC2)[C@H](NS(=O)(=O)CF)[C@@H]1Cc1cccc(-c2ccccc2)c1F [Compound 206, (6S,7S)-6-((2-fluoro-[1,1′-biphenyl]-3-yl)methyl)-7-((fluoromethyl)sulfonamido)-N—((R)-2-fluoropropyl)-5-azaspiro[2.4]heptane-5-carboxamide] | 1 to 10 |  |  |  | 90 to 100
CC(C)(C)C(=O)N1CC2(CC2)C(NS(C)(=O)=O)C1Cc1cccc(-c2cccc(F)c2)c1F (racemic) [Compound 23] | 10 to 100 | 90 to 100 |  |  | 
CS(=O)(=O)N[C@@H]1[C@H](Cc2cccc(-c3ccccc3)c2)N(C(=O)[C@H](O)CF)CC12CC2 [Compound 62, N-((6S,7S)-6-([1,1′-biphenyl]-3-ylmethyl)-5-((S)-3-fluoro-2-hydroxypropanoyl)-5-azaspiro[2.4]heptan-7-yl)methanesulfonamide] | 10 to 100 | 90 to 100 |  |  | 
O=C([C@H]1CCO1)N1CC2(CC2)[C@H](NS(=O)(=O)N2CCC2)[C@@H]1Cc1cccc(-c2ccccc2)c1 [Compound 76, N-((6S,7S)-6-([1,1′-biphenyl]-3-ylmethyl)-5-((R)-oxetane-2-carbonyl)-5-azaspiro[2.4]heptan-7-yl)azetidine-1-sulfonamide] | 10 to 100 | 90 to 100 |  |  | 

Now from value to compound, other results behind:

EC50 [1] [nM] | Emax [1] [%] | Structure (SMILES) | hOx2 Emax (%) [1] | hOx2 pEC50 [1] | Emax [%]
1 to 10 | 90 to 100 | CN(CCC#N)C(=O)N1CC2(CC2)[C@H](NS(C)(=O)=O)[C@@H]1Cc1cccc(-c2ccccc2)c1F [Compound 327, (6S,7S)-N-(2-cyanoethyl)-6-((2-fluoro-[1,1′-biphenyl]-3-yl)methyl)-N-methyl-7-(methylsulfonamido)-5-azaspiro[2.4]heptane-5-carboxamide] |  |  | 
1 to 10 | 90 to 100 | C[C@H](F)CNC(=O)N1CC2(CC2)[C@H](NS(=O)(=O)CF)[C@@H]1Cc1cccc(-c2ccccc2)c1F [Compound 205] |  |  | 
1 to 10 | 90 to 100 | COCC1(C(=O)N2CC3(CC3)[C@H](NS(C)(=O)=O)[C@@H]2Cc2cccc(-c3ccccc3)c2F)CC1 [Compound 386, N-((6S,7S)-6-((2-fluoro-[1,1′-biphenyl]-3-yl)methyl)-5-(1-(methoxymethyl)cyclopropane-1-carbonyl)-5-azaspiro[2.4]heptan-7-yl)methanesulfonamide] |  |  | 
1 to 10 | 90 to 100 | C[C@H](F)C(=O)N1CC2(CC2)[C@H](NS(=O)(=O)CF)[C@@H]1Cc1cc(F)cc(-c2cccc(F)c2)c1F [Compound 393, 1-fluoro-N-((6S,7S)-5-((S)-2-fluoropropanoyl)-6-((2,3′,5-trifluoro-[1,1′-biphenyl]-3-yl)methyl)-5-azaspiro[2.4]heptan-7-yl)methanesulfonamide] |  |  | 
1 to 10 | 90 to 100 | COC1(C(=O)N2CC3(CC3)[C@H](NS(=O)(=O)CF)[C@@H]2Cc2cc(F)cc(-c3ccccc3)c2F)CC1 [Compound 404, N-((6S,7S)-6-((2,5-difluoro-[1,1′-biphenyl]-3-yl)methyl)-5-(1-methoxycyclopropane-1-carbonyl)-5-azaspiro[2.4]heptan-7-yl)-1-fluoromethanesulfonamide] |  |  | 
10 to 100 | 90 to 100 | N#CCS(=O)(=O)N[C@@H]1[C@H](Cc2cccc(-c3ccccc3)c2F)N(C(=O)[C@H]2CCO2)CC12CC2 [Compound 362, 1-cyano-N-((6S,7S)-6-((2-fluoro-[1,1′-biphenyl]-3-yl)methyl)-5-((R)-oxetane-2-carbonyl)-5-azaspiro[2.4]heptan-7-yl)methanesulfonamide] |  |  | 
0.0794 to 1 | 90 to 100 | O=C([C@H](O)CF)N1CC2(CC2)[C@H](NS(=O)(=O)C(F)F)[C@@H]1Cc1cccc(-c2cccc(F)c2)c1F [Compound 380, N-((6S,7S)-6-((2,3′-difluoro-[1,1′-biphenyl]-3-yl)methyl)-5-((S)-3-fluoro-2-hydroxypropanoyl)-5-azaspiro[2.4]heptan-7-yl)-1,1-difluoromethanesulfonamide] |  |  | 
10 to 100 | 90 to 100 | CCS(=O)(=O)NC1C(Cc2cc(F)cc(-c3ccccc3)c2F)N(C(=O)[C@H](O)CF)CC12CC2 (stereo in doubt) [Compound 356, N-((6S,7S)-6-((2,5-difluoro-[1,1′-biphenyl]-3-yl)methyl)-5-((S)-3-fluoro-2-hydroxypropanoyl)-5-azaspiro[2.4]heptan-7-yl)ethanesulfonamide] |  |  | 
10 to 100 | 90 to 100 | CS(=O)(=O)N[C@@H]1[C@H](Cc2cccc(-c3cccc(F)c3)c2)N(C(=O)[C@H]2CCO2)CC12CC2 [Compound 305] |  |  | 
1 to 10 | 90 to 100 | CC(C)(F)S(=O)(=O)N[C@@H]1[C@H](Cc2cccc(-c3ccccc3)c2F)N(C(=O)[C@H]2CCO2)CC12CC2 [Compound 398, 2-fluoro-N-((6S,7S)-6-((2-fluoro-[1,1′-biphenyl]-3-yl)methyl)-5-((R)-oxetane-2-carbonyl)-5-azaspiro[2.4]heptan-7-yl)propane-2-sulfonamide] |  |  | 
10 to 100 | 90 to 100 | CC(C)(O)C(=O)N1CC2(CC2)[C@H](NS(=O)(=O)CF)[C@@H]1Cc1cc(F)cc(-c2cccc(F)c2)c1F [Compound 210, 1-fluoro-N-((6S,7S)-5-(2-hydroxy-2-methylpropanoyl)-6-((2,3′,5-trifluoro-[1,1′-biphenyl]-3-yl)methyl)-5-azaspiro[2.4]heptan-7-yl)methanesulfonamide] |  |  | 
1 to 10 | 90 to 100 | COC1CN(C(=O)N2CC3(CC3)[C@H](NS(=O)(=O)CF)[C@@H]2Cc2cccc(-c3cccc(F)c3)c2F)C1 [Compound 400, N-((6S,7S)-6-((2,3′-difluoro-[1,1′-biphenyl]-3-yl)methyl)-5-(3-methoxyazetidine-1-carbonyl)-5-azaspiro[2.4]heptan-7-yl)-1-fluoromethanesulfonamide] |  |  | 
10 to 100 | 90 to 100 | CS(=O)(=O)N[C@@H]1[C@H](Cc2cccc(-c3ccccc3)c2)N(C(=O)C2(C#N)CCC2)CC12CC2 (racemic) [Compound 295] |  |  | 
1 to 10 | 90 to 100 | O=C(NCC1(F)CC1)N1CC2(CC2)[C@H](NS(=O)(=O)C(F)F)[C@@H]1Cc1cc(F)cc(-c2ccccc2)c1F [Compound 417, (6S,7S)-6-(2,5-difluoro-[1,1′-biphenyl]-3-yl)methyl)-7-((difluoromethyl)sulfonamido)-N-((1-fluorocyclopropylmethyl)-5-azaspiro[2.4]heptane-5-carboxamide] |  |  | 
1 to 10 | 90 to 100 | COC[C@@H](O)C(=O)N1CC2(CC2)[C@H](NS(=O)(=O)CF)[C@@H]1Cc1cccc(-c2ccccc2)c1F [Compound 372, 1-fluoro-N-((6S,7S)-6-((2-fluoro-[1,1′-biphenyl]-3-yl)methyl)-5-((R)-2-hydroxy-3-methoxypropanoyl)-5-azaspiro[2.4]heptan-7-yl)methanesulfonamide] |  |  | 
